{"source": "patent US6068838A", "about": "“Purified multimerase” (Baxter Aktiengesellschaft, priority 1996, dated 2000)", "key": {"[1]": {"target": "T1, plasmin (Homo sapiens, UniProt P00747)", "T1 construct": "plasmin being diluted to 0.2 U/ml in 20 mM TBS buffer, pH 8.3", "T1 sequence (P00747 581-810)": "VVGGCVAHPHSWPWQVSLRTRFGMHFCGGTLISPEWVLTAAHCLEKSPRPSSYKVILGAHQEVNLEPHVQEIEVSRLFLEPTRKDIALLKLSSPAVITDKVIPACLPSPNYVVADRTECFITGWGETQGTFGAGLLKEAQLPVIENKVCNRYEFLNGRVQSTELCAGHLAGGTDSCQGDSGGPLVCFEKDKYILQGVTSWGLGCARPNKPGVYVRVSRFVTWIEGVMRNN", "T1 sequence (P00747 97-580)": "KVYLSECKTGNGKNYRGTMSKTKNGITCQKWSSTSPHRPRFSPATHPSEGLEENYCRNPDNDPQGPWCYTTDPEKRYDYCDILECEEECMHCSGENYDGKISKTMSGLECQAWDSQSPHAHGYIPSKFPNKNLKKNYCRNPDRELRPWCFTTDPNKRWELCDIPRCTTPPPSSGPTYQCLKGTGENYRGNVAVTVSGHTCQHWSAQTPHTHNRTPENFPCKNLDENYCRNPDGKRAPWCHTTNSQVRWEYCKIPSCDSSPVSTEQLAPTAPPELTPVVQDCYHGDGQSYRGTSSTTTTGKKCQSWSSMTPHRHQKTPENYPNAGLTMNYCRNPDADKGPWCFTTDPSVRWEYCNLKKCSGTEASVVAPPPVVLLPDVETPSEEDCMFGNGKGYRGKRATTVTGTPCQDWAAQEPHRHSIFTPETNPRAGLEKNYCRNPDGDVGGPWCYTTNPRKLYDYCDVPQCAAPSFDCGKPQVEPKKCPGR", "test": "Degradation of vWF with plasmin with and without inhibitors", "type": "biochemical", "conditions": "for effect of inhibitor on plasmin-induced reduction of high multimers of cryoprecipitate: incubation for more than 8 hours; for effect of inhibitor on plasmin degradation of r-vWF: plasmin reduced to 1:10, about 20 hours", "description": "(§1) Analysis of the r-vWF and its proteolytic degradation products was performed on 1% and 2% agarose gels, also according to the method of Ruggeri et al. (Blood 57 (1981), 1140-1143). The vWF multimers were made visible by immunoenzymatic staining according to Aihara et al. (Thromb. Haemostas. 55 (1986), 263-267). A rabbit-anti-von Willebrand factor-antiserum (from Dakopatts, Glostrup, Denmark) was used as the primary antibody, and an alkaline phosphatase-conjugated, affinity-purified goat-anti-rabbit IgG H+L-antibody (from Axell Accurate Chemical and Scientific Corp, Westburg, N.Y.) served as the secondary antibody. Staining of the protein bands was effected by means of the nitroblue tetrazolium/bromochloro-indolyl-phosphate substrate system."}, "[2]": {"target": "T2, vWF protease (Homo sapiens, UniProt Q76LX8)", "T2 construct": "the preparation prepared according to the invention with the vWF-specific protease; from tissue", "T2 sequence (Q76LX8 75-1427)": "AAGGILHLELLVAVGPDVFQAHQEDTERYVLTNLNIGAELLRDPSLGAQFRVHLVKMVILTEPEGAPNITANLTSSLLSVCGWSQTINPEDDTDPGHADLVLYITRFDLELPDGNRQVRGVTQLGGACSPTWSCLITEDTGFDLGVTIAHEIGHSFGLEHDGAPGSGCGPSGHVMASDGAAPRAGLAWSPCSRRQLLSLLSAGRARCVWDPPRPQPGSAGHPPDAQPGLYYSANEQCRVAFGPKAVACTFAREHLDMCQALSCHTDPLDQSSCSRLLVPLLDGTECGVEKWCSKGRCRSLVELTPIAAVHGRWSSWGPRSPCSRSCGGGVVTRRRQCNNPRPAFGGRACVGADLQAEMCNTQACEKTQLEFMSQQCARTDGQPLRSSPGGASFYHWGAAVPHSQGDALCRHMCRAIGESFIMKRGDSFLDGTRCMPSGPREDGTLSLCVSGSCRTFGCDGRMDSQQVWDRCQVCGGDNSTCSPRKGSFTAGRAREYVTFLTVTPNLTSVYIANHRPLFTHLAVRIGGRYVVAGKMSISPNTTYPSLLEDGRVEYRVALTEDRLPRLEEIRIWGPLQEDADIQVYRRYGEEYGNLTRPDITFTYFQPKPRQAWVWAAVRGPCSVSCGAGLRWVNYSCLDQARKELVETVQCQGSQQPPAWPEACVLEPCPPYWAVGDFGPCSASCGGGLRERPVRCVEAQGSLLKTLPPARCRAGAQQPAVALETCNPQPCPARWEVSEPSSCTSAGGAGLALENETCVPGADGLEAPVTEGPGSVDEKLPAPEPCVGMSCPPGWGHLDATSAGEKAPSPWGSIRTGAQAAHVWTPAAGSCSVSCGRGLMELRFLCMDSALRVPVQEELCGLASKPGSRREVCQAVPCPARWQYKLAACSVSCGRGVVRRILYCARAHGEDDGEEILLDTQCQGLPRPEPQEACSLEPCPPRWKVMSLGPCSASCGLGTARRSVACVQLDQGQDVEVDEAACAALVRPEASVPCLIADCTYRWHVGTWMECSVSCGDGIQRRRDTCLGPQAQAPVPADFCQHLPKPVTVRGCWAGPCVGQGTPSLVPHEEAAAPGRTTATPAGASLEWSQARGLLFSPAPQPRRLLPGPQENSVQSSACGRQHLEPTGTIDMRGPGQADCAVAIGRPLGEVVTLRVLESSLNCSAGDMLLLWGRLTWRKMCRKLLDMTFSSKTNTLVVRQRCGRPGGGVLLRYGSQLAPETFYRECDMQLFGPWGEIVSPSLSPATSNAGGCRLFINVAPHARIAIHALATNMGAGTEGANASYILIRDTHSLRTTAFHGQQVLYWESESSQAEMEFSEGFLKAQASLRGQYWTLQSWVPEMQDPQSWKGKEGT", "test": "Degradation of vWF by the vWF protease in the presence of aprotinin or PPACK", "type": "biochemical", "conditions": "for degradation of recombinant vWF by the protease in the presence of inhibitor: inhibitor concentration at which no protease activity detected with a chromogenic substrate of plasmin", "description": "The concentration of aprotinin and PPACK was chosen such that no protease activity could be detected with a chromogenic substrate of plasmin.\nIn this experiment, the degradation products of the recombinant vWF with the protease according to the invention were the satellite bands developed and the central bands. Actually all bands were very similar to plasmatic vWF (FIG. 14 (panel C)).\nas §1"}, "[3]": {"target": "T3, vWF-cleaving protease (Homo sapiens, UniProt Q76LX8)", "T3 construct": "Purification of Protease from Plasma; from tissue; host or cells: plasma (fibrinogen removed before chromatography)", "T3 sequence (Q76LX8 75-1427)": "T2 sequence (Q76LX8 75-1427)", "test": "Effect of protease inhibitors on vWF degradation", "type": "biochemical", "conditions": "for effect of peptidyl-diazomethylketone inhibitors on proteolytic degradation of vWF: final concentration 0.1 mM during preincubation with barium-activated protease"}, "[4]": {"target": "T3, vWF-cleaving protease", "test": "Influence of metal ions on the activity of the vWF-cleaving protease", "type": "biochemical", "conditions": "95 μl protease preincubated 15 minutes at 37° C. with 5 μl of 0.2 M salt solution"}, "[5]": {"test": "Incubation of r-vWF in vWF-deficient human plasma", "type": "in vitro ADME", "description": "Further tests investigated whether a proteolytic degradation of r-vWF took place during incubation with human plasma (cf. FIG. 18). For this, the r-vWF preparation was mixed with equal volumes of a vWF-deficient plasma (cf. FIG. 18 (panel A)) and incubated for 48 hours, samples being taken at various times. No change of the r-vWF over time could be detected.\nas §1"}}, "note": "Like-named read-outs stand apart in the source and are kept apart here. Residues, ends and D or L forms follow the SMILES beside them. *: point of attachment. Cbz = O=C(OCc1ccccc1)*; CHN2 = [N-]=[N+]=C*", "data": [{"compound": "N=C(N)NCCC[C@H](NC(=O)[C@@H]1CCCN1C(=O)[C@H](N)Cc1ccccc1)C(=O)CCl", "note": "[PPACK, Diphenylalanylprolyl arginine-chloromethylketone]", "values": [{"measurement": "effect of inhibitor on plasmin-induced reduction of high multimers of cryoprecipitate", "setting": "[1]", "result": "prevented"}, {"measurement": "effect of inhibitor on plasmin degradation of r-vWF", "setting": "[1]", "result": "prevented"}, {"measurement": "degradation of cryoprecipitate vWF by vWF protease on addition of inhibitor", "setting": "[2]", "result": "could not be prevented"}, {"measurement": "degradation of recombinant vWF by the protease in the presence of inhibitor", "setting": "[2]", "result": "degraded identically"}]}, {"compound": "O=C(O)CN(CCOCCOCCN(CC(=O)O)CC(=O)O)CC(=O)O", "note": "[ESTA, EGTA]", "values": [{"measurement": "inhibition of the barium-preincubated protease (vWF degradation by SDS agarose electrophoresis and immunoblotting)", "setting": "[3]; inhibitor final concentration 10 mM, 15 minutes preincubation at 37° C.", "result": "inhibit the barium-preincubated protease completely"}]}, {"compound": "O=C(O)CC(O)(CC(=O)O)C(=O)O", "note": "[citrate, Na3 -citrate]", "values": [{"measurement": "inhibition of the barium-preincubated protease (vWF degradation by SDS agarose electrophoresis and immunoblotting)", "setting": "[3]", "result": "partial inhibition"}]}, {"compound": "[Cl-].[Cl-].[Sr+2]", "note": "[Sr^2+, SrCl2]", "values": [{"measurement": "activation of the protease by metal ions", "setting": "[4]", "result": "substantial activation"}]}, {"compound": "[N-]=[N+]=CC(=O)[C@H](Cc1ccccc1)NC(=O)[C@H](Cc1ccccc1)NC(=O)OCc1ccccc1", "note": "[Z-Phe-Phe-CH2, Z-Phe-Phe-CHN2] (Cbz-Phe-Phe-CHN2)", "values": [{"measurement": "effect of peptidyl-diazomethylketone inhibitors on proteolytic degradation of vWF", "setting": "[3]", "result": "impaired the proteolytic degradation of vWF"}]}, {"compound": "Cc1ccc(S(=O)(=O)N[C@@H](CCCCN)C(=O)CCl)cc1", "note": "[TLCK, N-α-p-tosyl-L-lysine-chloromethylketone]", "values": [{"measurement": "inhibition of the barium-preincubated protease (vWF degradation)", "setting": "[3]", "result": "no inhibition"}]}, {"compound": "CC(C)[C@H](NC(=O)OCc1ccccc1)C(=O)N[C@H](C(=O)N[C@@H](Cc1ccc(O)cc1)C(=O)C=[N+]=[N-])C(C)C", "note": "[Z-Val-Val-Tyr-CHN2] (Cbz-Val-Val-Tyr-CHN2)", "values": [{"measurement": "effect of peptidyl-diazomethylketone inhibitors on proteolytic degradation of vWF", "setting": "[3]", "result": "impaired the proteolytic degradation of vWF"}]}, {"compound": "CCN1C(=O)C=CC1=O", "note": "[NEM, N-ethylmaleimide]", "values": [{"measurement": "inhibition of the barium-preincubated protease (vWF degradation by SDS agarose electrophoresis and immunoblotting)", "setting": "[3]", "result": "did not result in protease inhibition"}, {"measurement": "protease inhibition with inhibitor also incorporated into the dialysis solution", "setting": "[3]", "result": "partial protease inhibition"}]}, {"compound": "CC(=O)[O-].CC(=O)[O-].[Cd+2]", "note": "[Cd^2+, Cd(CH3 COO)2]", "values": [{"measurement": "activation of the protease by metal ions", "setting": "[4]", "result": "no activation"}]}, {"compound": "[Cl][Mn][Cl]", "note": "[Mn^2+, MnCl2]", "values": [{"measurement": "activation of the protease by metal ions", "setting": "[4]", "result": "no activation"}]}, {"compound": "CC(=O)N[C@@H](CC(C)C)C(=O)N[C@@H](CC(C)C)C(=O)N[C@H](C=O)CCCNC(=N)N", "note": "[leupeptin]", "values": [{"measurement": "inhibition of the barium-preincubated protease (vWF degradation)", "setting": "[3]", "result": "no inhibition"}]}, {"compound": "Cc1ccc(S(=O)(=O)N[C@@H](Cc2ccccc2)C(=O)CCl)cc1", "note": "[TPCK, N-α-p-tosyl-L-phenylalanine-chloromethylketone]", "values": [{"measurement": "inhibition of the barium-preincubated protease (vWF degradation)", "setting": "[3]; inhibitor 1 mM, 15 minutes preincubation at 37° C.", "result": "no inhibition"}]}, {"compound": "aprotinin", "values": [{"measurement": "inhibition of the barium-preincubated protease (vWF degradation)", "setting": "[3]", "result": "no inhibition"}, {"measurement": "effect of inhibitor on plasmin-induced reduction of high multimers of cryoprecipitate", "setting": "[1]", "result": "prevented"}, {"measurement": "effect of inhibitor on plasmin degradation of r-vWF", "setting": "[1]", "result": "prevented"}, {"measurement": "degradation of cryoprecipitate vWF by vWF protease on addition of inhibitor", "setting": "[2]", "result": "could not be prevented"}, {"measurement": "degradation of recombinant vWF by the protease in the presence of inhibitor", "setting": "[2]", "result": "degraded identically"}]}, {"compound": "O=S(=O)([O-])[O-].[Cu+2]", "note": "[Cu^2+, CuSO4]", "values": [{"measurement": "activation of the protease by metal ions", "setting": "[4]", "result": "no activation"}]}, {"compound": "r-vWF: Recombinant vWF factor produced according to FEBS-Letters 375, 259-262 (1995), singlet structure", "values": [{"measurement": "change of r-vWF structure in control preparation", "setting": "[5]; equal length of time at 37° C. in buffer media", "result": "no change of structure"}, {"measurement": "change of r-vWF over time", "setting": "[5]; mixed with equal volume of vWF-deficient plasma, incubated for 48 hours", "result": "No change"}]}, {"compound": "[Cl-].[Cl-].[Zn+2]", "note": "[Zn^2+, ZnCl2]", "values": [{"measurement": "activation of the protease by metal ions", "setting": "[4]", "result": "no activation"}]}, {"compound": "[Ba+2].[Cl-].[Cl-]", "note": "[Ba^2+, BaCl2]", "values": [{"measurement": "activation of the protease by metal ions", "setting": "[4]", "result": "substantial activation"}]}, {"compound": "O=C(O)CN(CCN(CC(=O)O)CC(=O)O)CC(=O)O", "note": "[EDTA]", "values": [{"measurement": "inhibition of the barium-preincubated protease (vWF degradation by SDS agarose electrophoresis and immunoblotting)", "setting": "[3]", "result": "inhibit the barium-preincubated protease completely"}]}, {"compound": "[Cl-].[Cl-].[Mg+2]", "note": "[Mg^2+, MgCl2]", "values": [{"measurement": "activation of the protease by metal ions", "setting": "[4]", "result": "slight activation"}]}, {"compound": "CC(C)C[C@H](NC(=O)OCc1ccccc1)C(=O)N[C@@H](CC(C)C)C(=O)N[C@@H](Cc1ccc(O)cc1)C(=O)C=[N+]=[N-]", "note": "[Z-Leu-Leu-Tyr-CHN2] (Cbz-Leu-Leu-Tyr-CHN2)", "values": [{"measurement": "effect of peptidyl-diazomethylketone inhibitors on proteolytic degradation of vWF", "setting": "[3]", "result": "active in the presence"}]}, {"compound": "O=S(=O)([O-])[O-].[Co+2]", "note": "[Co^2+, CoSO4]", "values": [{"measurement": "activation of the protease by metal ions", "setting": "[4]", "result": "no activation"}]}, {"compound": "O=S(=O)(F)Cc1ccccc1", "note": "[PMSF, phenylmethylsulfonyl fluoride]", "values": [{"measurement": "inhibition of the barium-preincubated protease (vWF degradation)", "setting": "[3]", "result": "no inhibition"}]}, {"compound": "[Ca+2].[Cl-].[Cl-]", "note": "[Ca^2+, CaCl2]", "values": [{"measurement": "activation of the protease by metal ions", "setting": "[4]", "result": "substantial activation"}]}, {"compound": "[Cl][Ni][Cl]", "note": "[Ni^2+, NiCl2]", "values": [{"measurement": "activation of the protease by metal ions", "setting": "[4]", "result": "no activation"}]}, {"compound": "NC(=O)CI", "note": "[IAA, iodoncetamide]", "values": [{"measurement": "inhibition of the barium-preincubated protease (vWF degradation by SDS agarose electrophoresis and immunoblotting)", "setting": "[3]", "result": "did not result in protease inhibition"}]}]}
